Drawing on US9676754B2, “Triazolone compounds and uses thereof” (Inception 2, Inc., priority 2012, dated 2017), this text covers IC50 for nine compounds.

For the experiment, the target named is T1, Human PPARα (Homo sapiens, UniProt Q07869).
T1 construct: host or cells: proprietary non-human mammalian cells
T1 sequence (Q07869 1-468): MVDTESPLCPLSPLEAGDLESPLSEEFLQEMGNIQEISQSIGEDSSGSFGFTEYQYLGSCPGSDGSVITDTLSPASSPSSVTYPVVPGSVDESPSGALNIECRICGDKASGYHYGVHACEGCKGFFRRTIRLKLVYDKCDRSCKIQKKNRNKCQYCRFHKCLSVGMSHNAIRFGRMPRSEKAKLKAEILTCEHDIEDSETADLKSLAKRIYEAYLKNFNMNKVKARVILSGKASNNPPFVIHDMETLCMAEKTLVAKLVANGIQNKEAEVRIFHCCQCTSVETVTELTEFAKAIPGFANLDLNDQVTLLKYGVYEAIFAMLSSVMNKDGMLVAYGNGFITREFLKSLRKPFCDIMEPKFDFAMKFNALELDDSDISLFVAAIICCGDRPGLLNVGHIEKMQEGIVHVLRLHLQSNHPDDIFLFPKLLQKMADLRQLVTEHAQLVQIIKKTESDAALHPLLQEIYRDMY
The experiment can be described thus: Human PPARα Reporter Assay (luciferase). In kind it is cell-based. The settings on record: antagonist activity, luciferase reporter cells, overnight incubation; read-out: Human PPARα Reporter Assay-Luciferase IC50. The procedure: Human PPARα Reporter Assay
The screening of test compounds for agonist or antagonist activities against human PPARα receptors was performed using a commercial kit, Human PPARα Reporter Assay System (Indigo Biosciences, Cat. #IB00111).
This nuclear receptor assay system utilizes proprietary non-human mammalian cells engineered to provide constitutive, high-level expression of Human PPARα. Because these cells incorporate a PPARα-responsive luciferase reporter gene, quantifying expressed luciferase activity provides a sensitive surrogate measure of PPARα activity in the treated cells. The primary application of this reporter assay system is in the screening of test samples to quantify any functional activity, either agonist or antagonist, that they may exert against human PPARα. […] Briefly, the reporter cells are dispensed into wells of the assay plate and then immediately dosed with test compounds. Following an overnight incubation, the treatment media are discarded and Luciferase Detection Reagent (LDR) is added. The intensity of light emission from the ensuing luciferase reaction provides a sensitive measure that is directly proportional to the relative level of PPARα activation in the reporter cells.
Consider `CCOc1ccc(-c2cccc(C(F)(F)CCc3nn(Cc4ccc(C(C)(C)C)cc4)c(=O)n3CC)c2)cc1CC(=O)O` [Example 22, 2-(3′-(3-(1-(4-(tert-Butyl)benzyl)-4-ethyl-5-oxo-4,5-dihydro-1H-1,2,4-triazol-3-yl)-1,1-difluoropropyl)-4-ethoxy-[1,1′-biphenyl]-3-yl)acetic acid], for which the IC50 was 64 nM.

In the case of `CCn1c(CCC(F)(F)c2cccc(-c3ccc(NS(=O)(=O)c4ccccc4)cn3)c2)nn(Cc2ccc(C(C)(C)C)cc2)c1=O` [Example 23, N-(6-(3-(3-(1-(4-(tert-Butyl)benzyl)-4-ethyl-5-oxo-4,5-dihydro-1H-1,2,4-triazol-3-yl)-1,1-difluoropropyl)phenyl)pyridin-3-yl)benzenesulfonamide], the IC50 came to 659 nM.

With `CCn1c(CCCc2cccc(-c3ccc(OC)c(CC(=O)O)c3)n2)nn(Cc2ccc(C(C)(C)C)cc2)c1=O` [Example 24, 2-(5-(6-(3-(1-(4-(tert-Butyl)benzyl)-4-ethyl-5-oxo-4,5-dihydro-1H-1,2,4-triazol-3-yl)propyl)pyridin-2-yl)-2-methoxyphenyl)acetic acid], the IC50 worked out at 2530 nM.

On to `CCn1c(CCCc2cccc(-c3cccc(-c4nnn[nH]4)c3)c2)nn(Cc2ccc(C(C)(C)C)cc2)c1=O` [Example 25, 3-(3-(3′-(1H-Tetrazol-5-yl)-[1,1′-biphenyl]-3-yl)propyl)-1-(4-(tert-butyl)benzyl)-4-ethyl-1H-1,2,4-triazol-5(4H)-one], for which the IC50 amounted to 2290 nM.

As for `CCOc1ccc(-c2nccc(CCCc3nn(Cc4ccc(C(C)(C)C)cc4)c(=O)n3CC)n2)cc1CC(=O)O` [Example 26, 2-(5-(4-(3-(1-(4-(tert-Butyl)benzyl)-4-ethyl-5-oxo-4,5-dihydro-1H-1,2,4-triazol-3-yl)propyl)pyrimidin-2-yl)-2-ethoxyphenyl)acetic acid], the IC50 was 1240 nM.

With `CCOc1ccc(-c2cc(CCCc3nn(Cc4ccc(C(C)(C)C)cc4)c(=O)n3CC)ncn2)cc1CC(=O)O` [Example 27, 2-(5-(6-(3-(1-(4-(tert-Butyl)benzyl)-4-ethyl-5-oxo-4,5-dihydro-1H-1,2,4-triazol-3-yl)propyl)pyrimidin-4-yl)-2-ethoxyphenyl)acetic acid], the IC50 stood at 3430 nM.

Turning to `CCn1c(CCCc2cccc(-c3ccc(CC(=O)O)c(OC)c3)c2)nn(Cc2ccc(C(C)(C)C)cc2)c1=O` [Example 28, (3′-(3-(1-(4-(tert-Butyl)benzyl)-4-ethyl-5-oxo-4,5-dihydro-1H-1,2,4-triazol-3-yl)propyl)-3-methoxy-[1,1′-biphenyl]-4-yl)acetic acid], the IC50 was determined as 140 nM.

Take `CCOc1cc(-c2cccc(CCCc3nn(Cc4ccc(C(C)(C)C)cc4)c(=O)n3CC)c2)ccc1CC(=O)O` [Example 29, (3′-(3-(1-(4-(tert-Butyl)benzyl)-4-ethyl-5-oxo-4,5-dihydro-1H-1,2,4-triazol-3-yl)propyl)-3-ethoxy-[1,1′-biphenyl]-4-yl)acetic acid]: the IC50 came to 59 nM.

As for `CCCOc1cc(-c2cccc(CCCc3nn(Cc4ccc(C(C)(C)C)cc4)c(=O)n3CC)c2)ccc1CC(=O)O` [Example 30, (3′-(3-(1-(4-(tert-Butyl)benzyl)-4-ethyl-5-oxo-4,5-dihydro-1H-1,2,4-triazol-3-yl)propyl)-3-propoxy-[1,1′-biphenyl]-4-yl)acetic acid], the IC50 turned out to be 36 nM.

The IC50 is the concentration at which inhibition is half-maximal.
